Experiment [1] concerns the target T1, Mitogen-activated protein kinase 12 (Homo sapiens) (UniProt P53778).
T1 sequence (whole entry): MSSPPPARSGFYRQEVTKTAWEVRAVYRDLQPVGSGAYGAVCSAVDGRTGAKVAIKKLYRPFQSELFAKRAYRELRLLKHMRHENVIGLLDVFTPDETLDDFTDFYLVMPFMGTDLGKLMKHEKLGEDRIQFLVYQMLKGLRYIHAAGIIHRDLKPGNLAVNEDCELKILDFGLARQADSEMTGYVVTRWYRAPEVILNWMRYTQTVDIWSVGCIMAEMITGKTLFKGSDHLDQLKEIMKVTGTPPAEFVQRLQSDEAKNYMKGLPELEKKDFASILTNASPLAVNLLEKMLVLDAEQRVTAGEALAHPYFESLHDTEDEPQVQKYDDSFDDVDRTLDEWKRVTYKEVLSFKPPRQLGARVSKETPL
In words: Selectivity interaction (KinomeScan (DiscoverX)) EUB0000229b MAPK12. As to conditions: at 10 µM.

In experiment [2] the target is Tyrosine-protein kinase receptor UFO (Homo sapiens) (UniProt P30530). Put plainly: Selectivity interaction (Kinase panel (Invitrogen)) EUB0000639a AXL. Particulars: at 200 nM.
Experiment [3] has as its target T2, Serine/threonine-protein kinase LATS1 (Homo sapiens) (UniProt O95835).
T2 sequence (whole entry): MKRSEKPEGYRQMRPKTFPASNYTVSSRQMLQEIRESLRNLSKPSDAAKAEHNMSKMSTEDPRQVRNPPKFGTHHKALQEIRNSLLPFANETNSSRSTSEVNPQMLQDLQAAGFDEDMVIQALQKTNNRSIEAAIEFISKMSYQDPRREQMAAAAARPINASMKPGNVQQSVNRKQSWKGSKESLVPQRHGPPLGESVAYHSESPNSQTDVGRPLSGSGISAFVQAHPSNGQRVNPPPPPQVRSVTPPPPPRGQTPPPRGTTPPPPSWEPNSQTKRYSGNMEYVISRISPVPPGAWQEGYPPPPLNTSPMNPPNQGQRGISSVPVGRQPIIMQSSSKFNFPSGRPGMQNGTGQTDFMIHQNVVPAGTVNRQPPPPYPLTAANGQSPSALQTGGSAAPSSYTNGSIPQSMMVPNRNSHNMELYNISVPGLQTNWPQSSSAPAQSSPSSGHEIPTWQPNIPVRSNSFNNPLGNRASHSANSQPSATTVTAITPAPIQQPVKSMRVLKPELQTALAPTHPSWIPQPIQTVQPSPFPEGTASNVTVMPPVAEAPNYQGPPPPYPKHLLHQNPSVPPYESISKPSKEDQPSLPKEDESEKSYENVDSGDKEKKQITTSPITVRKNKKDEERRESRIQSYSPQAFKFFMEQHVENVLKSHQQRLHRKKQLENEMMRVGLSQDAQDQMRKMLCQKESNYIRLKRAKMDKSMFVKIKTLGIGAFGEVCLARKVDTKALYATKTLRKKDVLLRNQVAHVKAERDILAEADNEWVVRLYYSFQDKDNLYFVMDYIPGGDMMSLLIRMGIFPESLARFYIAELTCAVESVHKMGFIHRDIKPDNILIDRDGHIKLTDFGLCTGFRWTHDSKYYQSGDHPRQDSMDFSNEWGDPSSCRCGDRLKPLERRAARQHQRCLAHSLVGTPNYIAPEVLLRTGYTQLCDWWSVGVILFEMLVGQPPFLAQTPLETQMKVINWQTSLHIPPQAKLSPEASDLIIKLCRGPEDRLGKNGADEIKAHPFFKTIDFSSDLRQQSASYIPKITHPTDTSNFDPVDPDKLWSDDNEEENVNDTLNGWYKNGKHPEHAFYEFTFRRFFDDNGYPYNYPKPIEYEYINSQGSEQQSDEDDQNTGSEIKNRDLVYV
As to conditions: at 10 µM.

Experiment [4] deals with T3, Mitogen-activated protein kinase kinase kinase 19 (Homo sapiens) (UniProt Q56UN5).
T3 sequence (whole entry): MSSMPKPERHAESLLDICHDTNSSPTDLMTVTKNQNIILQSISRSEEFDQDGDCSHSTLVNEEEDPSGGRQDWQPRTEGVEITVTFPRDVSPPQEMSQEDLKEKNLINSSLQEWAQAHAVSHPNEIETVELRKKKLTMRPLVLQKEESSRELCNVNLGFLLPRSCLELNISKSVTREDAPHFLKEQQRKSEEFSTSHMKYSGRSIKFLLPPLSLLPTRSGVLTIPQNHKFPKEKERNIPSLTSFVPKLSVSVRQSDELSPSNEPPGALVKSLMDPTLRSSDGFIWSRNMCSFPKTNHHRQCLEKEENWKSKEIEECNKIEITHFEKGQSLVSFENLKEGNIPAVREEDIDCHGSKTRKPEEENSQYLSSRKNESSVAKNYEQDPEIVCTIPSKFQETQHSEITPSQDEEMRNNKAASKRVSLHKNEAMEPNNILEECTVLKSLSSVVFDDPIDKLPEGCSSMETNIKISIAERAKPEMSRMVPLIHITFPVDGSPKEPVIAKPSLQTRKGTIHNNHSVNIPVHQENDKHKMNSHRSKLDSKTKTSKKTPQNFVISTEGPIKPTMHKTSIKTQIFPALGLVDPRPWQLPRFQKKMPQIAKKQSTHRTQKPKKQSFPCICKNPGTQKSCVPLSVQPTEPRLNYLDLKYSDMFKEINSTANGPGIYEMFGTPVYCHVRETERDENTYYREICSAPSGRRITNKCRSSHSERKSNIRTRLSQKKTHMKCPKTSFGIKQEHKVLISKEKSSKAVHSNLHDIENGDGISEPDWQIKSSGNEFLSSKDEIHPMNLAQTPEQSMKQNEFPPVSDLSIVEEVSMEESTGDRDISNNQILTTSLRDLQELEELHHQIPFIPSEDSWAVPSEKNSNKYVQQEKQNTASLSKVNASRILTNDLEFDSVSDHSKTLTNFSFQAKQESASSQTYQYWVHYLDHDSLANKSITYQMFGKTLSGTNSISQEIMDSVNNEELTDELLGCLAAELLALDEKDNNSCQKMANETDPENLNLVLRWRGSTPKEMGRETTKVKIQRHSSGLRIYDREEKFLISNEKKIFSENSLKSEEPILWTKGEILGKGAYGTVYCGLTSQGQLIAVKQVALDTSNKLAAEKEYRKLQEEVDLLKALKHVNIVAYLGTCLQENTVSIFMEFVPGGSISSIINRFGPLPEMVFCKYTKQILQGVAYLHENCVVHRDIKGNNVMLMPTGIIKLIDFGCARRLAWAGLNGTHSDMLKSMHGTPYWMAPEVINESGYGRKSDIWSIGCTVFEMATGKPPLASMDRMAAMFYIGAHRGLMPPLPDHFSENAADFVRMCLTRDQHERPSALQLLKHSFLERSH
In words: Selectivity interaction (KinomeScan (DiscoverX)) EUB0000045b MAP3K19.

Experiment [5] addresses Serine/threonine-protein kinase 24 (Homo sapiens) (UniProt Q9Y6E0). In words: Selectivity interaction (Upstate Kinase Profiler service (Millipore)) EUB0000056c STK24. As to conditions: at 1 µM.

Sequence of Serine/threonine-protein kinase 24 (Homo sapiens) (Q9Y6E0 whole entry, looked up): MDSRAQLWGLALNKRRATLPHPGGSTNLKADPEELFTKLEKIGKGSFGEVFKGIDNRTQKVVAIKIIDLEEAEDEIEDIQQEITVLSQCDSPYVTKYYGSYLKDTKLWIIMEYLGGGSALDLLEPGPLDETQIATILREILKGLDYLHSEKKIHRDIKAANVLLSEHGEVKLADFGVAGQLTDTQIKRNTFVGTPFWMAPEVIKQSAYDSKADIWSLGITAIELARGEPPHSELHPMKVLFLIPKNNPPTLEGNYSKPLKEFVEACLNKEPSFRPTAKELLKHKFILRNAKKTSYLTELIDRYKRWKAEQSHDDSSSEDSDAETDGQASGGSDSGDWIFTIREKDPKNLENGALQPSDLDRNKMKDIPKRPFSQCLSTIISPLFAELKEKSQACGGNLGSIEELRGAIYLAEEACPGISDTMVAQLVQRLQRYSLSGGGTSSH
Sequence of Tyrosine-protein kinase receptor UFO (Homo sapiens) (P30530 whole entry): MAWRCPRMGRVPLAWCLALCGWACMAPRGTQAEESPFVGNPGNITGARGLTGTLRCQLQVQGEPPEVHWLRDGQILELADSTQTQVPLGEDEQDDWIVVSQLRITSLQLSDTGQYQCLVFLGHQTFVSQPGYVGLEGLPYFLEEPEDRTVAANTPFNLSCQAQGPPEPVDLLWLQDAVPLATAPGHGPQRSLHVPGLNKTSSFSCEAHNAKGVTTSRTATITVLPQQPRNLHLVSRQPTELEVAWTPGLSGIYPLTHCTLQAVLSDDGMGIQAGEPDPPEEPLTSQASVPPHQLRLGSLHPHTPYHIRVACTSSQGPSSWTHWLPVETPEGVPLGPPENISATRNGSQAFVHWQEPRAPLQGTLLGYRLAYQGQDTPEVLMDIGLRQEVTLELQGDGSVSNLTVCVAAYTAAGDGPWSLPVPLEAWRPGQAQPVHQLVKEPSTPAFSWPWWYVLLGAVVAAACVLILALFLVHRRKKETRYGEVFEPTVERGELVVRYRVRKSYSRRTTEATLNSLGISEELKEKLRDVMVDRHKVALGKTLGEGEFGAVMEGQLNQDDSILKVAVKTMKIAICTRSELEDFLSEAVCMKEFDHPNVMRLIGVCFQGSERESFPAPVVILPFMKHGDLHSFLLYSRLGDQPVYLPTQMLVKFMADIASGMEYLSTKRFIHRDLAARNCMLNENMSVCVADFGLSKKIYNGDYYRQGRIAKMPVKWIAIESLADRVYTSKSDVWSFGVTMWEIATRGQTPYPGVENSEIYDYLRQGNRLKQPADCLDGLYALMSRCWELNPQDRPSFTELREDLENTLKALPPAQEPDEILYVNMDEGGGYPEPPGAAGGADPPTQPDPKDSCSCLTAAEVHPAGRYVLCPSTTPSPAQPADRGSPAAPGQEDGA

In the case of `COc1cc(N(C)c2ccnc3ccc(C(F)(F)F)cc23)cc(OC)c1OC`, the % binding in experiment [1] stood at 100%. As to `CC[C@@H]1[C@H](F)C(=O)N[C@@H]1COc1nccc2cc(C(N)=O)c(OC)cc12` [ZIMLOVISERTIB], the % of inhibition in experiment [2] was 12.2%. Consider `CCN(CC)CCCCNc1ncc2cc(-c3cc(OC)cc(OC)c3)c(NC(=O)NC(C)(C)C)nc2n1`, for which the % of control in experiment [3] is 100%. Turning to `C=CC(=O)Nc1cc(-n2c(=O)ccc3cnc4ccc(-c5ccc(NS(C)(=O)=O)cc5)cc4c32)ccc1C`, the % of control in experiment [4] (at 1 µM) turned out to be 100%; in experiment [4] (at 10 µM) it was 65%. Take `Cc1ccc(-c2ccc3c(ccc4sc5c(c43)NC[C@@H](C)NC5=O)n2)cn1`: the % of inhibition in experiment [5] stood at 33%.
